Experiment: xn = mol fraction of the nth substance listed
Details: Liquid, Vibrating tube method

CC(C)=O [acetone] + CCCCCCC
Details	mass density [kg/m3]
417.17 K, 39880 kPa, x1 = 0.611	658.3
417.17 K, 44850 kPa, x1 = 0.492	656.44
417.17 K, 49850 kPa, x1 = 0.492	662.04
417.17 K, 54840 kPa, x1 = 0.492	667.29
417.17 K, 59840 kPa, x1 = 0.492	672.26
417.17 K, 104790 kPa, x1 = 0.611	716.82
417.17 K, 104800 kPa, x1 = 0.492	707.7
417.17 K, 109770 kPa, x1 = 0.492	710.89
417.17 K, 109780 kPa, x1 = 0.611	720.13
417.17 K, 114870 kPa, x1 = 0.611	723.4
417.17 K, 124850 kPa, x1 = 0.611	729.46
417.17 K, 129850 kPa, x1 = 0.611	732.41
417.18 K, 1840 kPa, x1 = 0.801	597.33
417.18 K, 4870 kPa, x1 = 0.801	607.96
417.18 K, 14870 kPa, x1 = 0.492	610.71
417.18 K, 19870 kPa, x1 = 0.492	620.5
417.18 K, 24830 kPa, x1 = 0.492	629.07
417.18 K, 29860 kPa, x1 = 0.492	636.88
417.18 K, 34860 kPa, x1 = 0.492	643.95
417.18 K, 39860 kPa, x1 = 0.492	650.43
417.18 K, 64820 kPa, x1 = 0.492	676.9
417.18 K, 69910 kPa, x1 = 0.492	681.45
417.18 K, 74890 kPa, x1 = 0.492	685.69
417.18 K, 79880 kPa, x1 = 0.492	689.75
417.18 K, 84870 kPa, x1 = 0.492	693.62
417.18 K, 89860 kPa, x1 = 0.492	697.34
417.18 K, 94830 kPa, x1 = 0.492	700.9
417.18 K, 99820 kPa, x1 = 0.492	704.36
417.18 K, 114850 kPa, x1 = 0.492	714.07
417.18 K, 119830 kPa, x1 = 0.492	717.08
417.18 K, 124850 kPa, x1 = 0.492	720.01
417.18 K, 129840 kPa, x1 = 0.492	722.86
417.19 K, 2070 kPa, x1 = 0.4	611.4
417.19 K, 2070 kPa, x1 = 0.8992	611.4
417.19 K, 5030 kPa, x1 = 0.4	621.55
417.19 K, 5030 kPa, x1 = 0.8992	621.55
417.19 K, 9870 kPa, x1 = 0.801	622.44
417.19 K, 10010 kPa, x1 = 0.4	635.78
417.19 K, 10010 kPa, x1 = 0.8992	635.78
417.19 K, 14860 kPa, x1 = 0.801	634.41
417.19 K, 15000 kPa, x1 = 0.4	647.66
417.19 K, 15000 kPa, x1 = 0.8992	647.66
417.19 K, 19860 kPa, x1 = 0.801	644.76
417.19 K, 19970 kPa, x1 = 0.4	657.99
417.19 K, 19970 kPa, x1 = 0.8992	657.99
417.19 K, 24870 kPa, x1 = 0.801	653.93
